According to PMC1790865, “Plant Carbohydrate Scavenging through TonB-Dependent Receptors: A Feature Shared by Phytopathogenic and Aquatic Bacteria” (PLoS ONE, 2007):

Key:
[1] = target: T1, SuxC (XCC3357 inner membrane sugar transporter) (Xanthomonas campestris, UniProt Q8P5I4); test: […]sucrose concentration-dependent uptake in whole wild-type cells (Scatchard, slow phase); uptake lost in suxC insertion mutant; assay type: cell-based
T1 construct: gene suc1

[2] = target: T2, SuxA (XCC3358 TonB-dependent receptor) (Xanthomonas campestris, UniProt Q8P5I3); test: […]sucrose concentration-dependent uptake in whole wild-type cells (Scatchard, high-affinity phase); uptake lost in suxA deletion mutant and restored by complementation; assay type: cell-based
T2 construct: gene fyuA
T2 sequence (Q8P5I3 entry or part of it): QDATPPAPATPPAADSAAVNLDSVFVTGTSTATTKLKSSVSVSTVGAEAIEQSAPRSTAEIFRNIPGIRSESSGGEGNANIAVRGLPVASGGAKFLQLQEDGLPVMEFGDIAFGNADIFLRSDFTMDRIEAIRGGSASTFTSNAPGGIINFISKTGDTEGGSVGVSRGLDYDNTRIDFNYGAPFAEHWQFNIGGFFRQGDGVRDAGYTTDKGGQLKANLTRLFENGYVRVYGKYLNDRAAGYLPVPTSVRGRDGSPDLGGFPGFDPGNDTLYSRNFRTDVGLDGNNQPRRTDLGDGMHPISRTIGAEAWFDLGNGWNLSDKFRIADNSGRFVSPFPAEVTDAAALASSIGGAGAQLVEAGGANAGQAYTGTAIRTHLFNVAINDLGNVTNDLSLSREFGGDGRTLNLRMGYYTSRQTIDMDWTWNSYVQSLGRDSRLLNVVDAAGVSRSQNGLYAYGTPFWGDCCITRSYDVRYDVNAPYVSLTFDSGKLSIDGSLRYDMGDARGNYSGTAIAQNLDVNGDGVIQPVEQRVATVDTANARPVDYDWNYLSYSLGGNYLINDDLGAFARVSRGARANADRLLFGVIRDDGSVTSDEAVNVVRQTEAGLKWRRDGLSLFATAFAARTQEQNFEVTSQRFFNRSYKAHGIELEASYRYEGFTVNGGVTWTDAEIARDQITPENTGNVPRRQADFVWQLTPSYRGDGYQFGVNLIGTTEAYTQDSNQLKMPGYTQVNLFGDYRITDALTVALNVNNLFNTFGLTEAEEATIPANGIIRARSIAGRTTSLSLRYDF

T1 sequence (Q8P5I4 entry or part of it): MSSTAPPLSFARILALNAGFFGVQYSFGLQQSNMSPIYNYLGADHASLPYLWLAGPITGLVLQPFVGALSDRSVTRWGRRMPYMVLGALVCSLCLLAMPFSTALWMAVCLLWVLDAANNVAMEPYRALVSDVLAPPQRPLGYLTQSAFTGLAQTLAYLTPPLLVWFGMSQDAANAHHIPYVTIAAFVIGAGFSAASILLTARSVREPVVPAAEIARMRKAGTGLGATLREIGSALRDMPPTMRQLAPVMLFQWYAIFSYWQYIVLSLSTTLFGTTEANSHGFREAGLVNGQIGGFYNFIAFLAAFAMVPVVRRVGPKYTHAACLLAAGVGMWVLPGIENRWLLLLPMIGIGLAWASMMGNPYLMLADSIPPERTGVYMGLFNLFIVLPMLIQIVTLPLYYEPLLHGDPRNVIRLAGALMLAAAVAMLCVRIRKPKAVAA

With `OC[C@H]1O[C@@](CO)(O[C@H]2O[C@H](CO)[C@@H](O)[C@H](O)[C@H]2O)[C@@H](O)[C@@H]1O` [sucrose] the Kd [1] was 590 nM and the Kd [2] was 33 nM.
